# Measured values: ChEMBL document CHEMBL5303304, “EUbOPEN Chemogenomics Library - IncuCyte” (2023)
# Tests used:
# Type in all cases: toxicity, cell-based
# Fibroblast = experiment: Incucyte cell viability with human fibroblast; conditions: 10 µM, compound concentration 10 uM
# U2OS = experiment: Incucyte cell viability with U2OS; conditions: human, 10 µM, compound concentration 10 uM
# HEK-293T = experiment: Incucyte cell viability with HEK293T; conditions: human, 10 µM, compound concentration 10 uM
# Further: unitless GR value; below 1 slowed growth and below 0 cell loss.
Structure (SMILES),"Growth Rate (Fibroblast; 6 h, replicate number 2)","Growth Rate (Fibroblast; 12 h, replicate number 1)","Growth Rate (Fibroblast; 12 h, replicate number 2)","Growth Rate (Fibroblast; 18 h, replicate number 1)","Growth Rate (Fibroblast; 24 h, replicate number 2)","Growth Rate (U2OS; 6 h, replicate number 2)","Growth Rate (U2OS; 12 h, replicate number 1)","Growth Rate (U2OS; 12 h, replicate number 2)","Growth Rate (U2OS; 18 h, replicate number 1)","Growth Rate (U2OS; 18 h, replicate number 2)","Growth Rate (U2OS; 24 h, replicate number 1)","Growth Rate (U2OS; 24 h, replicate number 2)","Growth Rate (HEK-293T; 6 h, replicate number 1)","Growth Rate (HEK-293T; 6 h, replicate number 2)","Growth Rate (HEK-293T; 12 h, replicate number 1)","Growth Rate (HEK-293T; 12 h, replicate number 2)","Growth Rate (HEK-293T; 18 h, replicate number 1)","Growth Rate (HEK-293T; 18 h, replicate number 2)","Growth Rate (HEK-293T; 24 h, replicate number 1)","Growth Rate (HEK-293T; 24 h, replicate number 2)",other results
c1ccc2c(c1)SCc1c-2[nH]c2ccccc12,-1,-0.96,-0.98,-0.86,-0.84,-0.66,-0.65,-0.52,-0.63,-0.49,-0.5,-0.42,-0.95,-0.96,-0.76,-0.7,-0.53,-0.49,-0.37,-0.38,"Growth Rate (Fibroblast; 0 h, replicate number 1): -1; Growth Rate (Fibroblast; 6 h, replicate number 1): -0.99; Growth Rate (Fibroblast; 18 h, replicate number 2): -0.94; Growth Rate (Fibroblast; 24 h, replicate number 1): -0.75; Growth Rate (U2OS; 0 h, replicate number 1): -0.33; Growth Rate (U2OS; 6 h, replicate number 1): -0.4"
COc1ncc2cc(C(=O)Nc3cc(C(=O)NCc4cccc(Cl)c4)ccc3Cl)c(=O)[nH]c2n1,-0.4,-0.98,0.79,-0.46,0.92,0.67,,,,0.97,,0.97,0.22,-0.03,0.64,0.55,0.51,0.64,0.67,0.79,"Growth Rate (Fibroblast; 0 h, replicate number 2): 0.35; Growth Rate (Fibroblast; 24 h, replicate number 1): 0.44"
Cc1ccc(NC(=O)c2ccc3c(c2)OCCO3)cc1NC(=O)c1ccc2nc(OCCN3CCCC3)ccc2c1,-0.58,-0.3,-0.27,-0.2,-0.05,0.35,-0.04,0.05,-0.16,-0.04,-0.12,-0.01,-0.91,-0.96,-0.78,-0.81,-0.56,-0.61,-0.43,-0.45,"Growth Rate (Fibroblast; 0 h, replicate number 2): -0.85; Growth Rate (Fibroblast; 6 h, replicate number 1): -0.21; Growth Rate (Fibroblast; 18 h, replicate number 2): -0.22; Growth Rate (Fibroblast; 24 h, replicate number 1): -0.09; Growth Rate (U2OS; 0 h, replicate number 1): 0.21; Growth Rate (U2OS; 6 h, replicate number 1): 0.15"
Cc1cc(Cn2c(N3CC4(CNC4)C3)nc3c(N4CCN(C)CC4)cc(Cl)cc32)cc(C)c1F,-1,-0.99,-1,-0.95,-0.93,-0.99,-0.97,-0.92,-0.92,-0.84,-0.79,-0.77,-0.99,-1,-0.88,-0.92,-0.67,-0.74,-0.51,-0.56,"Growth Rate (Fibroblast; 0 h, replicate number 1): -1; Growth Rate (Fibroblast; 18 h, replicate number 2): -0.98; Growth Rate (Fibroblast; 24 h, replicate number 1): -0.88; Growth Rate (U2OS; 0 h, replicate number 1): -1; Growth Rate (U2OS; 6 h, replicate number 1): -0.98"
Cn1cc(-c2ccc3occ(-c4cccc(-c5ccncc5)c4)c3n2)cn1,-0.75,-0.8,0.4,0.07,0.73,0.44,0.6,0.51,0.65,0.73,0.7,0.87,-0.45,-0.34,-0.46,0,-0.15,0.33,0.35,0.52,"Growth Rate (Fibroblast; 0 h, replicate number 1): 0.22; Growth Rate (Fibroblast; 18 h, replicate number 2): 0.54; Growth Rate (Fibroblast; 24 h, replicate number 1): 0.25; Growth Rate (U2OS; 0 h, replicate number 2): 0.89; Growth Rate (U2OS; 6 h, replicate number 1): -0.24"
CNc1nc(NCc2ncccn2)c2c(-c3ccc4ncccc4c3)c[nH]c2n1,,-0.94,,0.83,,0.82,,0.7,0.84,0.85,0.94,0.86,0.58,0.42,0.9,0.84,0.83,0.8,0.84,0.86,"Growth Rate (Fibroblast; 0 h, replicate number 1): -0.08; Growth Rate (Fibroblast; 0 h, replicate number 2): -0.54; Growth Rate (U2OS; 6 h, replicate number 1): 0.78"
NC(=O)c1cc2c(-c3ccc(C(=O)NCc4ccnc(Cl)c4)s3)cccc2s1,-0.95,,-0.43,,-0.11,-0.51,0.05,-0.23,0,-0.03,0.05,0.03,-0.51,-0.71,-0.4,-0.32,-0.29,-0.17,-0.23,-0.09,"Growth Rate (Fibroblast; 6 h, replicate number 1): -1; Growth Rate (Fibroblast; 18 h, replicate number 2): -0.25; Growth Rate (U2OS; 0 h, replicate number 1): -0.34; Growth Rate (U2OS; 0 h, replicate number 2): 0.46; Growth Rate (U2OS; 6 h, replicate number 1): -0.24"
CCN1/C(=C/C(C)=O)Sc2ccc(OC(C)=O)cc21,-0.62,,,,,0.95,0.91,0.62,1,0.94,0.98,0.9,-0.36,0.16,0.1,0.67,0.02,0.66,0.09,0.67,"Growth Rate (Fibroblast; 0 h, replicate number 2): 0.08; Growth Rate (Fibroblast; 24 h, replicate number 1): 0.91; Growth Rate (U2OS; 0 h, replicate number 1): 0.39; Growth Rate (U2OS; 0 h, replicate number 2): -0.86"
CC(C)n1cc(-c2ccc(N3CCN(C)CC3)c(NC(=O)c3ccc(-c4ccncc4)o3)c2)cn1,0.11,,0.45,,0.65,,0.96,,,,,,-0.65,-0.31,-0.36,-0.01,-0.19,0.15,-0.08,0.31,"Growth Rate (Fibroblast; 0 h, replicate number 2): -0.35; Growth Rate (Fibroblast; 6 h, replicate number 1): -0.97; Growth Rate (Fibroblast; 18 h, replicate number 2): 0.67; Growth Rate (U2OS; 0 h, replicate number 1): -0.65; Growth Rate (U2OS; 0 h, replicate number 2): -0.8"
COc1ccc2nc3ccc(OC)cc3c(SCCCN)c2c1.Cl,,,,,0.89,,,,,0.99,0.86,0.85,-0.94,0.26,-0.75,0.76,-0.57,0.45,-0.41,0.33,"Growth Rate (Fibroblast; 0 h, replicate number 2): -0.39; Growth Rate (Fibroblast; 6 h, replicate number 1): -1; Growth Rate (U2OS; 0 h, replicate number 2): -0.96"
C#Cc1cnc2[nH]cc(-c3cccc4c3CCN4C(=O)[C@@H]3CCCN3C#N)c2c1,-1,-0.63,-0.69,-0.48,-0.41,0.45,-0.58,-0.19,-0.68,-0.52,-0.58,-0.56,-0.95,-0.98,-0.75,-0.78,-0.46,-0.5,-0.29,-0.34,"Growth Rate (Fibroblast; 0 h, replicate number 1): -1; Growth Rate (Fibroblast; 6 h, replicate number 1): -0.83; Growth Rate (Fibroblast; 18 h, replicate number 2): -0.58; Growth Rate (Fibroblast; 24 h, replicate number 1): -0.36; Growth Rate (U2OS; 0 h, replicate number 1): 0.82; Growth Rate (U2OS; 6 h, replicate number 1): 0.06"
Cl.O=C(NCCN1CCC2(CC1)C(=O)NCN2c1cccc(F)c1)c1ccc2ccccc2c1,-0.05,-0.27,-0.26,-0.19,-0.14,0.73,0.24,0.25,-0.13,0.23,-0.24,0.17,-0.37,-0.93,0.06,-0.68,0.22,-0.32,0.34,-0.14,"Growth Rate (Fibroblast; 0 h, replicate number 1): -1; Growth Rate (Fibroblast; 6 h, replicate number 1): -0.03; Growth Rate (Fibroblast; 18 h, replicate number 2): -0.07; Growth Rate (Fibroblast; 24 h, replicate number 1): -0.27; Growth Rate (U2OS; 0 h, replicate number 1): -0.95; Growth Rate (U2OS; 0 h, replicate number 2): -0.98; Growth Rate (U2OS; 6 h, replicate number 1): 0.46"
